# Measurements: patent publication US9119396B2, “Method for promoting plant growth” (SUMITOMO CHEMICAL COMPANY, LIMITED, priority 2011, dated 2015)
# Tests used:
# Assay type in all cases: in vivo
# [1] = system: Rice (cultivar: Nipponbare); assay: Test Example 6: reduction of drought stress by immersion treatment of rice; settings: hydroponic solution 10 ppm for 14 days, drought stress 2 days, then 14 days cultivation
# Experimental: Evaluation Test for Reduction of Drought Stress by Immersion Treatment of Rice Rice (cultivar: Nipponbare) A necessary amount of rice seeds was immersed in an aqueous solution of 1,000 ppm of Benlate, and incubated at 30° C. overnight under dark conditions. The aqueous solution of Benlate was replaced with distilled water, and the seeds were further incubated at 30° C. overnight under dark conditions. A filter paper was placed on the holes of a plug tray having 406 holes, and the rice seeds treated as above were sown on the filter paper. To the rice seeds were added a kimura B solution for hydroponics (see Plant Science 119: 39-47 (1996)) at ½ concentration and a 1/10,000 volume of a DMSO solution containing the present compound 1 at 100,000 ppm, and cultivated for 14 days under the conditions of a temperature of 28° C. in daytime/23° C. in night, a humidity of 60%, an illuminance of 8500 lux, and a day length of 12 hours. […] Fourteen (14) days after the treatment, the fresh weight of the overground parts of five test plants in each treated group was measured. The experiment was performed in three replications in each treated group and the average value was calculated. […]
# Wheat (cultivar: Apogee) [2] = assay: Test Example 7: reduction of high-temperature stress by spraying treatment of wheat; settings: spray solution 100 ppm, high-temperature stress 36° C./32° C. 7 days, 60 days after sowing
# Experimental: (§1) Evaluation Test for Reduction of High-Temperature Stress by Spraying Treatment of Wheat
# (§2) Five wheat seeds were sown in the culture soil (AISAI) in each plastic pot and cultivated for 28 days in an artificial weather control room under the conditions of a temperature of 18° C. in daytime/15° C. in night, and an illuminance of 7,000 lux. Before the stress test, 3 individuals per pot were removed.
# (§3) To 0.5 mg of the present compound 1 were added 120 mg of a mixture (weight ratio 1:1) of white carbon and ammonium polyoxyethylene alkyl ether sulfate and 300 μl of water. The mixture was finely ground by a wet grinding method to obtain a flowable formulation of the present compound 1. This flowable formulation was diluted with 50 ml of water. The mixture was diluted with RINO (manufactured by NIHON NOHYAKU CO., LTD) as a spreading agent to 5,000-fold dilution to obtain a spray solution containing 100 ppm of the present compound 1. […]
# After the high-temperature stress treatment, the plants were cultivated in an artificial weather control room under the conditions of a temperature of 18° C. in daytime/15° C. in night, and a illuminance of 7,000 lux. Then, 60 days after the sowing, the fresh weight of seeds in ears of the tested plants in 7 or 8 pots were measured, and the average values of the weight of seeds of ears per one pot (3 individuals) were calculated. […]
# Wheat (cultivar: Apogee) [3] = assay: Test Example 10: reduction of high-temperature stress by spraying treatment of wheat; settings: spray solution 1 ppm, high-temperature stress 36° C./32° C. 7 days, 90 days after the stress treatment
# Experimental: as §1, §2
# as §3, with “500” for “50”, “1” for “100”
# After the high-temperature stress treatment, the plants were cultivated in an artificial weather control room under the conditions of a temperature of 18° C. in daytime/15° C. in night, and a illuminance of 7,000 lux. Then, 90 days after the high-temperature stress treatment, the number and the weight of seeds in ears of the tested plants in 7 or 8 pots were measured, and the average values of the number and the weight of seeds per one ear were calculated. […]
structure (smiles),measurement,setting,value
COC(=O)c1cc2cc(C(F)(F)F)ccc2s1 [compound 1],fresh weight of the overground part of plants vs non-treated group,[1],much heavier
same,fresh weight of seeds of ears vs non-treated group,Wheat (cultivar: Apogee) [2],much larger
same,number of seeds per one ear vs non-treated group,Wheat (cultivar: Apogee) [3],much larger
same,weight of seeds per one ear vs non-treated group,Wheat (cultivar: Apogee) [3],much larger
